# Measurements from ChEMBL document CHEMBL1121862, “Synthesis of 3-hydroxycyclophosphamide and studies related to its possible role in the metabolism of cyclophosphamide” (1981).
# What was measured:
# [1] = species on record: Mus musculus; assay: animal or person; settings: ip
# [2] = species on record: Mus musculus; assay: animal or person; settings: ip; remark: listed apart in the source
smiles,measurement,setting,value
O=P1(N(CCCl)CCCl)NCCCO1 (configuration not stated) [CYCLOPHOSPHAMIDE ANHYDROUS],ILS at 200 mg/kg,[1],> 150%
same,ILS at 100 mg/kg,[2],> 100%
